Results: patent publication US8202998B2, “Salts of benzimidazolyl pyridyl ethers and formulations thereof” (Novartis AG, priority 2006, dated 2012)
Values belong to the compound of their own block, whether it stands above or below them.

Experiments:
[1] = Polymorphism behavior: crystal modification after 24 hours equilibration; type: physicochemical
Experimental: A suspension of 6 mg of drug substance in 300 μl of solvent is prepared. Samples are agitated for ≧24 hour at 22° C.±2° C. The solids are collected and investigated for changes.

[2] = Thermogravimetry / loss on drying; type: physicochemical; settings: for Loss on drying by TG: As is; for Thermogravimetry (weight loss in %): Heating rate 20 K/min
[3] = Determination of solubility at 25° C.; type: physicochemical; settings: for solubility: thermodynamic from solid; for Solid: line after Water under Solubility; for Aqueous solubility (in words): summary of Table 8
Experimental: Excess solids were equilibrated in each solvent for over 24 hours at 25° C.±0.1. Concentration in aqueous supernatant was measured by UV and HPLC and concentrations in organic solvents by gravimetry.

[4] = Bioavailability study of API and salts of API in dogs; type: in vivo, beagle dogs; settings: single 100 mg oral dose; for AUC(0-inf) / Cmax / half-life / Tmax: beagle, dog, plasma; for AUC(0-inf) / Cmax / half-life / Tmax / Tlag: fasting; for AUC(0-inf) / Cmax / half-life: mean and sd; for Tmax / Tlag: median; for Absolute F: relative to an iv dose of 1.25 mg/kg
Experimental: For comparison, a microemulsion of the free base was also studied. The study was performed with 4 dogs, weighing 9-15 kg each. A crossover design with a washout period of at least 1 week was used. The dogs were given a single oral dose of 100 mg of test compound, administered under fasting conditions.

[5] = Intrinsic dissolution rate; type: physicochemical; settings: 37° C.
Experimental: The intrinsic dissolution rate measurements were carried out in 0.5 cm^2 VanKel die assemblies and a pellet pressure of 1 ton. The dissolution was measured using a Cary 50 spectrophotometer with a stirring rate of 200 rpm. The solution medium was held at 37° C. and measurements were made at 276 nm.

[6] = Effect of grinding on morphic properties; type: physicochemical
[7] = Stability: degradation products (DP) and appearance (color) under stress conditions; type: physicochemical; parameters: key to CL: A: No change of color; B: Slight discoloration; C: Medium discoloration; D: Strong discoloration; ↓: Suspension; *: Clear solution after stress test; —: no change; x: test not performed
Experimental: Column: Symmetry C18 (Waters), 3.5 μm, 3×150 mm
Mobile phase: A=0.1% TFA in water; B=acetonitrile
Gradient: 20 to 100% B in 10 minutes
Column temperature: 40° C.
Stability of the three salts with respect to color and degradation products were assessed under various conditions.

[8] = pH of 1% solution or suspension; type: physicochemical; settings: In water
[9] = Aqueous solubility of salts in deionized water; settings: for solubility / solubility at 48 h: deionized water, water, thermodynamic from solid; for pH: pH of the saturated aqueous solutions
[10] = Hygroscopicity (sorption/desorption); type: physicochemical; settings: for Hygroscopicity: After 1 day at 80% r.h. / Hygroscopicity: After 1 day at 95% r.h.: 25° C.
Experimental: Sorption/desorption isotherms were measured using VTI vapor sorption device (DVS-1). Measurements were carried out at 25° C.

[11] = 0.1N HCl, 25 °C, simulated gastric fluid, read-out: Solubility (approx. at 25° C.) (HPLC)
[12] = acetonitrile, 25 °C, organic solvent or mixture, read-out: Solubility (approx. at 25° C.)
[13] = aqueous medium at pH 3, 25 °C, pH 3, aqueous buffer, read-out: Solubility (approx. at 25° C.) (HPLC)
[14] = aqueous medium at pH 4.5, 25 °C, pH 4.5, aqueous buffer, read-out: Solubility (approx. at 25° C.) (HPLC)
[15] = methanol, 25 °C, organic solvent or mixture, read-out: Solubility (approx. at 25° C.)
[16] = water, 25 °C, water, read-out: Solubility (approx. at 25° C.) (HPLC)
[17] = 0.1% solutions or suspensions, 1 week 80° C. or 50° C., Methanol
[18] = 0.1% solutions or suspensions, 1 week 80° C. or 50° C., Water
[19] = 1-2 weeks 50° C., tight container, 1% in mixture 1
[20] = 1-2 weeks 50° C., tight container, 1% in mixture 2
[21] = 1-2 weeks 50° C./75% r.h., 1% in mixture 1
[22] = 1-2 weeks 50° C./75% r.h., 1% in mixture 2
[23] = Solid stage, 1 week 80° C., tight container, Bulk (HPLC)
[24] = Solid state, 1 week 80° C./175% r.h, Bulk (HPLC)
[25] = Solid state, 1 week 80° C./, Bulk (HPLC)
[26] = Xenon light (approx. 1200 kLuxh), Bulk (HPLC)

Crystal modification after 24 hours equilibration (DSC/XRPD/TG) ([1]; 2-propanol): No change
Crystal modification after 24 hours equilibration (DSC/XRPD/TG) ([1]; Acetone): Change
Crystal modification after 24 hours equilibration (DSC/XRPD/TG) ([1]; Acetonitrile): Change
Crystal modification after 24 hours equilibration (DSC/XRPD/TG) ([1]; Ethanol): No change
Crystal modification after 24 hours equilibration (DSC/XRPD/TG) ([1]; Ethyl acetate): Change
Crystal modification after 24 hours equilibration (DSC/XRPD/TG) ([1]; Methanol): Change
Crystal modification after 24 hours equilibration (DSC/XRPD/TG) ([1]; PEG400): Change
Crystal modification after 24 hours equilibration (DSC/XRPD/TG) ([1]; Water): No change
Loss on drying by TG ([2]; listed as maleate, maleate): 0.1%
Loss on drying by TG ([2]; maleate): 0.11%
Thermogravimetry (weight loss in %) [2]: 0.11%
solubility [3, 11]: 2300 µg/mL
solubility [3, 12]: 4700 µg/mL
solubility [3, 13]: 0.15 µg/mL
solubility [3, 14]: 0.03 µg/mL
Solid [3]: No change
solubility [3, 15]: > 50000 µg/mL
Measured pH ([3]; solubility sample at pH 3): 3.4
Measured pH ([3]; solubility sample in 0.1N HCl): 1.4
solubility [3, 16]: 10 µg/mL
AUC(0-inf) [4]: 29600 ± 5920 ng·h/mL
Cmax [4]: 1220 ± 320 ng/mL
half-life [4]: 18.8 ± 7.7 h
Tmax [4]: 4 h
Tlag [4]: 0.12 h
Absolute F [4]: 12.9 ± 2.6
Intrinsic dissolution rate ([5]; HCl 0.1N): 0.03 mg min^−1 cm^−2
Intrinsic dissolution rate ([5]; Water): 0.0076 mg min^−1 cm^−2
Effect of grinding [6]: No change
CL [7, 17]: A
DP [7, 17]: 0.4%
CL [7, 18]: A↓
DP [7, 18]: 0.3%
CL [7, 19]: A
DP [7, 19]: 0.4%
CL [7, 20]: A
DP [7, 20]: 0.4%
CL [7, 21]: A
DP [7, 21]: 1.1%
CL [7, 22]: A
DP [7, 22]: 0.5%
Stability in methanol (in words) ([7]; In methanol): stable
CL [7, 23]: A
DP [7, 23]: 0.7%
DP [7, 24]: 0.4%
CL [7, 25]: A
DP ([7]; Unstressed): 0.3%
CL [7, 26]: A
DP [7, 26]: 0.3%
pH of 1% solution or suspension [8]: 2.7
solubility [9]: 17 µg/mL
solubility at 48 h [9]: 96 µg/mL
pH [9]: 2.415
Hygroscopicity from moisture sorption profiles (in words) [10]: slightly hygroscopic
Hygroscopicity: After 1 day at 80% r.h. [10]: 0.8
Hygroscopicity: After 1 day at 95% r.h. [10]: 1.1
Compound: Cn1c(Nc2ccc(C(F)(F)F)cc2)nc2cc(Oc3ccnc(-c4ncc(C(F)(F)F)[nH]4)c3)ccc21.O=C(O)/C=C\C(=O)O [Maleate, {1-methyl-5-[2-(5-trifluoromethyl-1H-imidazol-2-yl)-pyridin-4-yloxy]-1H-benzoimidazol-2-yl}-(4-trifluoromethyl-phenyl)amine maleate]
Aqueous solubility (in words) [3]: higher at low pH and lower in neutral conditions

Crystal modification after 24 hours equilibration (DSC/XRPD/TG) ([1]; 2-propanol): No change
Crystal modification after 24 hours equilibration (DSC/XRPD/TG) ([1]; Acetone): No change
Crystal modification after 24 hours equilibration (DSC/XRPD/TG) ([1]; Acetonitrile): No change
Crystal modification after 24 hours equilibration (DSC/XRPD/TG) ([1]; Ethanol): No change
Crystal modification after 24 hours equilibration (DSC/XRPD/TG) ([1]; Ethyl acetate): No change
Crystal modification after 24 hours equilibration (DSC/XRPD/TG) ([1]; Methanol): No change
Crystal modification after 24 hours equilibration (DSC/XRPD/TG) ([1]; PEG400): No change
Crystal modification after 24 hours equilibration (DSC/XRPD/TG) ([1]; Water): Change
Loss on drying by TG [2]: 1.3%
Thermogravimetry (weight loss in %) [2]: 1.3%
solubility [3, 11]: 5700 µg/mL
solubility [3, 12]: 4000 µg/mL
solubility [3, 13]: 0.5 µg/mL
solubility [3, 14]: 0.1 µg/mL
Solid [3]: No change
solubility [3, 15]: > 50000 µg/mL
Measured pH ([3]; solubility sample at pH 3): 3.6
Measured pH ([3]; solubility sample in 0.1N HCl): 1.3
solubility [3, 16]: 70 µg/mL
AUC(0-inf) [4]: 54400 ± 14200 ng·h/mL
Cmax [4]: 1570 ± 530 ng/mL
half-life [4]: 21.4 ± 13 h
Tmax [4]: 5 h
Tlag [4]: 0.13 h
Absolute F [4]: 23.7 ± 6.2
Intrinsic dissolution rate ([5]; HCl 0.1N): 0.056 mg min^−1 cm^−2
Intrinsic dissolution rate ([5]; Water): 0.0024 mg min^−1 cm^−2
Effect of grinding [6]: No change
CL [7, 17]: A
DP [7, 17]: 2.7%
CL [7, 18]: A↓
DP [7, 18]: 0.5%
CL [7, 19]: A
DP [7, 19]: 0.5%
CL [7, 20]: A
DP [7, 20]: 0.6%
CL [7, 21]: A
DP [7, 21]: 2%
CL [7, 22]: A
DP [7, 22]: 1.2%
CL [7, 23]: A
DP [7, 23]: 0.5%
DP [7, 24]: 0.8%
CL [7, 25]: A
DP ([7]; Unstressed): 0.5%
CL [7, 26]: A
DP [7, 26]: 0.6%
pH of 1% solution or suspension [8]: 2.0
solubility [9]: 4 µg/mL
solubility at 48 h [9]: 774 µg/mL
pH [9]: 1.992
Hygroscopicity from moisture sorption profiles (in words) [10]: hygroscopic
Hygroscopicity: After 1 day at 80% r.h. [10]: 4.0
Hygroscopicity: After 1 day at 95% r.h. [10]: 13.0
Compound: CS(=O)(=O)O.Cn1c(Nc2ccc(C(F)(F)F)cc2)nc2cc(Oc3ccnc(-c4ncc(C(F)(F)F)[nH]4)c3)ccc21 [Mesylate, {1-methyl-5-[2-(5-trifluoromethyl-1H-imidazol-2-yl)-pyridin-4-yloxy]-1H-benzoimidazol-2-yl}-(4-trifluoromethyl-phenyl)amine methanesulfonate]
Aqueous solubility (in words) [3]: significantly improves aqueous solubility at all pH levels
